Test results reported in PubChem BioAssay (NCI).
“And” between values parts separate entries of the source, which are not always exact repeats. Equal values may be shown once.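 Five compound concentrations were applied to cells in 96-well plates for 48 hours; endpoints were derived by simple linear interpolation of the resulting dose-response curve. At the GI50, growth is halved. TGI is the concentration that stops growth completely.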

What was measured:
Experiment in all cases: inhibition of tumour cell growth, NCI panel, 48 h
DU-145 prostate = test system: DU-145 prostate
EKVX NSCLC = test system: EKVX NSCLC
KM12 colon = test system: KM12 colon
M14 melanoma = test system: M14 melanoma
MALME-3M melanoma = test system: MALME-3M melanoma
MOLT-4 leukemia = test system: MOLT-4 leukemia
RXF 393 renal = test system: RXF 393 renal
UACC-257 melanoma = test system: UACC-257 melanoma
UACC-62 melanoma = test system: UACC-62 melanoma
UO-31 renal = test system: UO-31 renal

Structure (SMILES) | GI50 (DU-145 prostate) [µM] | TGI (DU-145 prostate) [µM] | GI50 (EKVX NSCLC) [µM] | TGI (EKVX NSCLC) | GI50 (KM12 colon) [µM] | TGI (KM12 colon) | GI50 (M14 melanoma) [µM] | TGI (M14 melanoma) [µM] | GI50 (MALME-3M melanoma) [µM] | TGI (MALME-3M melanoma) | GI50 (MOLT-4 leukemia) [µM] | TGI (MOLT-4 leukemia) | GI50 (RXF 393 renal) | TGI (RXF 393 renal) | GI50 (UACC-257 melanoma) [µM] | TGI (UACC-257 melanoma) | GI50 (UACC-62 melanoma) [µM] | TGI (UACC-62 melanoma) [µM] | GI50 (UO-31 renal) [µM] | TGI (UO-31 renal)
CC(C)(CO)N=Cc1ccccc1[O-].CC(C)(CO)N=Cc1ccccc1[O-].[Co+2] | 42.1 | > 100 | > 84.4 | > 100 µM | > 97.8 | > 100 µM | 38.7 | > 100 | 49.5 | > 100 µM | 8.39 | > 100 µM | > 100 µM | > 100 µM | 30.1 | > 100 µM | 24.9 | > 85.3 | 44.9 | > 100 µM
Cc1cc(=O)oc2cc(OCCn3c(C)nn(-c4ccc(Cl)cc4)c3=O)ccc12 | 3.9 | > 100 | > 100 | > 100 µM | 1.66 | > 100 µM | 2.36 | > 100 | 3.85 | > 100 µM | 4.71 | > 100 µM | 2.76 µM | 30 µM | – | – | 1.99 | > 100 | 12.7 | > 100 µM
Fc1cc(-c2nnc3n2N=C(c2ccc(Cl)cc2Cl)CS3)c(Cl)cc1Cl | 49.5 | > 100 | 58.5 | > 100 µM | 41.9 | > 100 µM | 37.5 | > 100 | 26.6 | 94.4 µM | 75.1 | > 100 µM | 51 µM | > 100 µM | 86 | > 100 µM | 24.9 | 99.6 | 60.2 | > 100 µM
COc1ccc(C2ONC3=NCCN32)cc1 (configuration not stated) | 70.3 | > 100 | > 100 | > 100 µM | 54.7 | > 100 µM | > 100 | > 100 | > 100 | > 100 µM | 37.1 | > 100 µM | > 100 µM | > 100 µM | > 100 | > 100 µM | 67.3 | > 100 | – | –
O=C(O)C1C2C=CC(O2)C1C(=O)Nc1ncccn1 (configuration not stated) | – | > 100 | – | > 100 µM | – | > 100 µM | – | > 100 | – | > 100 µM | – | > 100 µM | – | > 100 µM | – | > 100 µM | – | > 100 | – | > 100 µM
CCCn1cnc2c(SCc3ccccc3)nc(N)nc21 | > 100 | > 100 | 67.3 | > 100 µM | > 100 | > 100 µM | > 100 | > 100 | > 100 | > 100 µM | 95.7 | > 100 µM | 24.4 µM | > 100 µM | > 100 | > 100 µM | > 100 | > 100 | 67.7 | > 100 µM
O=C(Nc1cc(S(=O)(=O)c2ccc(Cl)cc2)ccc1Cl)c1cc(I)cc(I)c1O | 17.2 | 30.9 | 20.2 | 44.5 µM | 14.2 | 27.4 µM | 17.6 | 35 | 21.1 | 48.5 µM | 19.3 | 41 µM | 15.1 µM | 35.5 µM | 18.4 | 42.1 µM | 4.2 | 15.5 | 20.9 | 38.8 µM
CCN(CC)CCOc1ccc(/C=C2\CC3C4CC=C5C[C@@H](OC(C)=O)CC[C@]5(C)C4CC[C@]3(C)C2=O)cc1OC (some centres not stated) | 3.87 | 16.6 | 16.7 | 36.3 µM | 1.99 | 4.18 µM | 2.09 | 4.36 | 1.96 | 3.47 µM | 1.45 | > 100 µM | 2.58 µM | 7.77 µM | 6.97 | 31.6 µM | 2.2 | 4.09 | 11.1 | 23.1 µM
C=CC(=O)Nc1cccc(Nc2nc(Nc3ccc(OCCOC(F)F)cc3)ncc2F)c1 | 1.96 | > 100 | 4.3 | > 100 µM | 3.57 | 17.2 µM | 2.54 | 18.8 | 2.49 | 35.1 µM | 3.73 | > 100 µM | 1.09 µM | 4.42 µM | 5.56 | 47.5 µM | 1.73 | 11.1 | 1.29 | 9.56 µM
Cn1cnc([N+](=O)[O-])c1Sc1nc(N)nc2nc[nH]c12 | 2.91 | > 100 | 3.9 | > 100 µM | 3.94 | > 100 µM | 1.28 | > 100 | 13 | > 100 µM | 3.55 | > 100 µM | 5.09 µM | > 91.7 µM | 8.38 | > 100 µM | 2.96 | 25.7 | 4.71 | > 100 µM
Cc1ccc(/C=C2\CNC/C(=C\c3ccc(C)cc3)C2=O)cc1 | – | 16 | 2.85 | 8.3 µM and 20.8 µM | 0.399 | 1.55 µM and 3.32 µM | – | 11.2 | 2.4 | 6.37 µM and 38.5 µM | 1.81 | 4.84 µM and 19.2 µM | 2.24 µM and 1.81 µM | 3.84 µM and 3.29 µM | 1.71 | 3.55 µM and 12.8 µM | – | 4.36 | – | 3.14 µM and 3.25 µM
COc1ccc2cc(-c3c(-c4ccncc4)nc(-c4ccc(S(C)=O)cc4C)n3C)ccc2c1 (configuration not stated) | > 25 | > 25 | 8.34 | > 25 µM | > 22.3 | > 25 µM | > 21.6 | > 25 | 7.04 | > 25 µM | 17.4 | > 25 µM | > 24.2 µM | > 25 µM | 14.8 | > 25 µM | 13.8 | > 25 | 6.37 | > 25 µM
COc1ccc(/C=C(/C(=O)n2cnnn2)c2cc(OC)c(OC)c(OC)c2)cc1 | 3.5 | > 100 | 5.48 | > 100 µM | 1.96 | > 100 µM | 2.58 | > 100 | 7.75 | > 100 µM | 4.31 | > 100 µM | 3.91 µM | > 100 µM | > 100 | > 100 µM | 3.1 | > 100 | 5.41 | > 100 µM
Cc1cc(NC(=O)NC(=O)c2ccccc2N(C)C)ccc1Oc1ncc(Br)cn1 | – | > 63.1 | – | > 68.1 µM | – | > 38 µM | 0.428 | > 63.1 | 2.22 | > 100 µM | 0.533 | 39.7 µM | 0.242 µM | 0.698 µM and 6.37 µM | – | > 100 µM | – | > 100 | 0.584 | > 63.1 µM
O=C(O)C1C(C(=O)O)C2(Cl)C(Cl)=C(Cl)C1(Cl)C2(Cl)Cl.[Cd] (configuration not stated) | 17.8 | 34.5 | 19.9 | 35.6 µM | 16.9 | 37.5 µM | 19.2 | 38.9 | 2.33 | 7.05 µM | 22 | 60.9 µM | 13.7 µM | 30.5 µM | 15.5 | 30.7 µM | 3.84 | 15.4 | 20.1 | 39.3 µM
COc1ccc(-c2nc3c(c(=O)n2C(C)=O)C(c2ccc(Cl)cc2)c2sc4c(Cl)cccc4c2O3)cc1 (configuration not stated) | 0.394 | 1.96 | 0.71 | 4.74 µM | 0.349 | 1.91 µM | 0.239 | 0.973 | 0.409 | 2.62 µM | 0.386 | 2.64 µM | 0.235 µM | 0.675 µM | 0.776 | 3.29 µM | 0.298 | 1.7 | 0.329 | 2.39 µM
COc1ccc(/C=C/C(=O)C(C)(C)Br)cc1 | – | 37.2 | – | 31.7 µM | – | 55.1 µM | – | 3.79 | – | 32 µM | – | 18.9 µM | – | 6.09 µM | – | 30.2 µM | – | 27.1 | – | 16.6 µM
CCOCNc1ccc(N2C(=O)/C(=C/c3ccc(N(CC)CC)cc3)N=C2c2ccccc2)cc1 | > 100 | > 100 | > 100 | > 100 µM | 5.44 | > 100 µM | > 100 | > 100 | 24.8 | > 100 µM | 4.57 | > 100 µM | 4.23 µM | 17.4 µM | > 100 | > 100 µM | 3.93 | 37.1 | – | –
Fc1c[c-]c(-c2ccccn2)c(F)c1.[CH3-].[Pt+2].c1ccc(P(C[PH+](c2ccccc2)c2ccccc2)c2ccccc2)cc1 | 1.06 | 6.47 | 0.495 | 1.96 µM | 0.421 | 1.25 µM | 0.71 | 2.31 | 0.342 | 0.919 µM | 0.825 | 5.81 µM | 0.702 µM | 1.49 µM | 0.696 | 2.93 µM | 0.545 | 1.89 | 0.731 | 1.41 µM
CCc1cccc(CC)c1/C=C/c1cncc(C(=O)NC)c1 | 16.5 | > 25 | 14.2 | > 25 µM | 9.02 | > 25 µM | 6.57 | 18.8 | 10.9 | > 25 µM | 12.4 | > 25 µM | 5.87 µM | 24.8 µM | > 13.5 | > 25 µM | 10 | > 25 | 8.8 | > 25 µM
Nc1ncnc2c1c(-c1ccc(Oc3ccccc3)cc1)nn2C[C@@H]1SSC[C@@H]1O | 1.36 | 4.02 | 0.373 | 5.84 µM | 0.18 | 12.1 µM | 0.0212 | 0.0462 | 0.445 | 2.24 µM | 0.0304 | 0.119 µM | 1.46 µM | 5.6 µM | 0.374 | 11.9 µM | 0.193 | 0.411 | 1.54 | 5.63 µM
O=C(Nc1ccccc1O)c1ccc(CNC(=O)c2ccsc2Nc2ccnc(C(F)(F)F)c2)cc1 | 2.12 | 5.67 | 3.09 | 14.5 µM | 2.84 | 11.9 µM | 2.61 | 7.03 | 1.7 | 6.65 µM | 0.956 | 9.48 µM | 1.93 µM | 4.82 µM | 1.52 | 7.03 µM | 1.43 | 4.83 | 1.32 | 4.34 µM
COc1cc2cc(Oc3ccc(NC(=O)c4cccc5c4OCCO5)cc3)c(C)nc2cc1OC | 25.7 | > 100 | 5.32 | > 100 µM | 4.39 | > 100 µM | 4.9 | > 100 | 8.76 | > 100 µM | 4.53 | > 100 µM | 8.81 µM | > 100 µM | 4.79 | 63.5 µM | 6.24 | > 100 | 4.17 | > 100 µM
CC1(C)C2CCC13C(=O)C1OC3(C2)C2C(=O)c3c(O)cccc3C(=O)C12 (configuration not stated) | 0.196 | 0.386 | 8.37 | 21.4 µM | 2.6 | 14.9 µM | 3.24 | 12.2 | 0.29 | 1.02 µM | 0.111 | – | 1.56 µM | 3.5 µM | 0.792 | 2.43 µM | 0.2 | 0.403 | 4.5 | 18.5 µM
CN(C)C/C=C/C(=O)Nc1ccc(C(=O)N2CCC[C@@H](Nc3ncc(Cl)c(-c4c[nH]c5ccccc45)n3)C2)cc1 | 0.215 | 11.1 | 0.827 | 7.5 µM | 0.371 | 12.1 µM | 0.359 | 2.16 | 0.0372 | 0.315 µM | 0.182 | 3.55 µM | 0.115 µM | 0.561 µM | 0.234 | 1.32 µM | 0.173 | 0.445 | 9.84 | 23 µM
Nc1ccn([C@@H]2C(F)=C(CO)[C@@H](O)[C@H]2O)c(=O)n1 | 0.445 | > 100 | 26.8 | > 100 µM | 0.65 | > 100 µM | 0.859 | > 100 | 9.57 | > 100 µM | 1.85 | > 100 µM | 8.04 µM | > 100 µM | – | – | 3.78 | > 100 | 0.462 | > 100 µM
